In data set [1] the test system is Solanum lycopersicum. Nature of the data set: Phytotoxicity in Solanum lycopersicum (tomato) plant assessed as plant stunting at 87.5 to 100 mg/l after 120 days under greenhouse condition. The format is organism-based. Particulars: in vivo, 2880 h.
Data set [2] has as its system Solanum melongena. The data set is described as follows: Phytotoxicity in Solanum melongena (eggplant) assessed as plant stunting at 87.5 to 100 mg/l after 80 days under greenhouse condition. The format is organism-based. Particulars: in vivo, 1920 h.
The subject of data set [3] is Solanum melongena. Nature of the data set: Phytotoxicity in Solanum melongena (eggplant) assessed as leaf chlorosis at 100 to 250 mg/l after 80 to 120 days under field condition. The format is organism-based. Particulars: in vivo.
The test system of data set [4] is Verticillium dahliae. Nature of the data set: Fungicidal activity against Verticillium dahliae infected eggplant assessed as vascular discoloration at 100 to 250 mg/l after 120 days under field condition relative to untreated control. The format is functional, organism-based.
In data set [5] the test system is Verticillium dahliae. Nature of the data set: Fungicidal activity against Verticillium dahliae infected eggplant assessed as reduction in severity of external symptoms at 100 to 250 mg/l after 80 to 120 days under field condition relative to untreated control. Type of data set: functional. Further details: scale not given: the % may be the effect or the level left.

The subject of data set [6] is Solanum lycopersicum. Nature of the data set: Phytotoxicity in Solanum lycopersicum (tomato) plant assessed as leaf chlorosis at 100 to 250 mg/l after 120 days under field condition. Type of data set: organism-based. The following applies: in vivo, 2880 h.
Data set [7] deals with Pseudopyrenochaeta lycopersici. The data set is described as follows: Fungicidal activity against Pyrenochaeta lycopersici infected tomato plant assessed as diseased root surface at 100 to 250 mg/l after 100 days under field condition relative to untreated control. Type of data set: functional.
The subject of data set [8] is Verticillium dahliae. The data set is described as follows: Fungicidal activity against Verticillium dahliae infected eggplant assessed as wilted leaves at 87.5 to 100 mg/l after 80 days under greenhouse condition relative to untreated control. The format is functional.
Data set [9] concerns Pseudopyrenochaeta lycopersici. Nature of the data set: Fungicidal activity against Pyrenochaeta lycopersici infected tomato plant assessed as diseased root surface at 87.5 to 100 mg/l after 120 days under greenhouse condition relative to untreated control. The format is functional.
Data set [10] deals with Solanum melongena. Nature of the data set: Phytotoxicity in Solanum melongena (eggplant) assessed as leaf chlorosis at 12.5 mg/l after 80 to 120 days under field condition. The format is organism-based. Particulars: in vivo.
For data set [11], the system named is Solanum melongena. The data set is described as follows: Induction of systemic acquired resistance activity in Solanum melongena (eggplant) infected with Verticillium dahliae assessed as vascular discoloration at 12.5 mg/l after 120 days under field condition relative to untreated control. Type of data set: functional, organism-based.
Data set [12] relates to Solanum melongena. Nature of the data set: Induction of systemic acquired resistance activity in Solanum melongena (eggplant) infected with Verticillium dahliae assessed as reduction in severity of external symptoms at 12.5 mg/l after 80 to 120 days under field condition relative to untreated control. Type of data set: functional. Details: scale not given: the % may be the effect or the level left.

The subject of data set [13] is Solanum lycopersicum. The data set is described as follows: Phytotoxicity in Solanum lycopersicum (tomato) plant assessed as leaf chlorosis at 12.5 mg/l after 120 days under field condition. The format is organism-based. Particulars: in vivo, 2880 h.
The test system of data set [14] is Solanum lycopersicum. Nature of the data set: Induction of systemic acquired resistance activity in Solanum lycopersicum (tomato) plant infected with Pyrenochaeta lycopersici assessed as diseased root surface at 12.5 mg/l after 100 days under field condition relative to untreated control. The format is functional.
Data set [15] concerns Solanum melongena. The data set is described as follows: Phytotoxicity in Solanum melongena (eggplant) assessed as plant stunting at 12.5 to 87.5 mg/l after 80 days under greenhouse condition. Type of data set: organism-based. Particulars: in vivo, 1920 h.
In data set [16] the test system is Solanum melongena. The data set is described as follows: Phytotoxicity in Solanum melongena (eggplant) assessed as leaf chlorosis at 12.5 to 87.5 mg/l after 80 days under greenhouse condition. The format is organism-based. Particulars: in vivo, 1920 h.
Data set [17] has as its system Solanum lycopersicum. The data set is described as follows: Phytotoxicity in Solanum lycopersicum (tomato) plant assessed as plant stunting at 12.5 to 87.5 mg/l after 120 days under greenhouse condition. The format is organism-based. Particulars: in vivo, 2880 h.
Data set [18] relates to Solanum lycopersicum. Nature of the data set: Phytotoxicity in Solanum lycopersicum (tomato) plant assessed as leaf chlorosis at 12.5 to 87.5 mg/l after 120 days under greenhouse condition. The following applies: in vivo, 2880 h. Type of data set: organism-based.
The test system of data set [19] is Solanum melongena. The data set is described as follows: Phytotoxicity in Solanum melongena (eggplant) assessed as plant stunting after 80 days under greenhouse condition. The format is organism-based. The following applies: in vivo, 1920 h.
For data set [20], the system named is Solanum lycopersicum. Nature of the data set: Phytotoxicity in Solanum lycopersicum (tomato) plant assessed as plant stunting after 120 days under greenhouse condition. Type of data set: organism-based. The following applies: in vivo, 2880 h.
For data set [21], the system named is Solanum melongena. Nature of the data set: Phytotoxicity in Solanum melongena (eggplant) assessed as plant stunting during early growth stage after 80 to 120 days under field condition. The format is organism-based. Particulars: in vivo.
The subject of data set [22] is Verticillium dahliae. Nature of the data set: Fungicidal activity against Verticillium dahliae infected eggplant assessed as vascular discoloration applied as dipping of seedling roots into fungicide water suspension before transplanting and two soil drenches post transplanting after 120 days under field condition relative to untreated control. The format is functional, organism-based.

Data set [23] has as its system Verticillium dahliae. The data set is described as follows: Fungicidal activity against Verticillium dahliae infected eggplant assessed as vascular discoloration applied as one soil drench and two foliar sprays post transplanting after 120 days under field condition relative to untreated control. Type of data set: functional, organism-based.
The test system of data set [24] is Verticillium dahliae. Nature of the data set: Fungicidal activity against Verticillium dahliae infected eggplant assessed as vascular discoloration applied as dipping of seedling roots into fungicide water suspension before transplanting and one soil drench post transplanting after 120 days under field condition relative to untreated control. The format is functional, organism-based.

Data set [25] concerns Verticillium dahliae. Nature of the data set: Fungicidal activity against Verticillium dahliae infected eggplant assessed as reduction in severity of external symptoms applied as dipping of seedling roots into fungicide water suspension before transplanting and two soil drenches post transplanting after 80 to 120 days under field condition relative to untreated control. The format is functional. Details: scale not given: the % may be the effect or the level left.

Data set [26] has as its system Verticillium dahliae. Nature of the data set: Fungicidal activity against Verticillium dahliae infected eggplant assessed as reduction in severity of external symptoms applied as one soil drench and two foliar sprays post transplanting after 80 to 120 days under field condition relative to untreated control. Type of data set: functional. Details: scale not given: the % may be the effect or the level left.

The subject of data set [27] is Verticillium dahliae. The data set is described as follows: Fungicidal activity against Verticillium dahliae infected eggplant assessed as reduction in severity of external symptoms applied as dipping of seedling roots into fungicide water suspension before transplanting and one soil drench post transplanting after 80 to 120 days under field condition relative to untreated control. Further details: scale not given: the % may be the effect or the level left. The format is functional.

Data set [28] relates to Solanum lycopersicum. Nature of the data set: Phytotoxicity in Solanum lycopersicum (tomato) plant assessed as plant stunting during early growth stage after 120 days under field condition. The format is organism-based. Particulars: in vivo, 2880 h.
Data set [29] relates to Pseudopyrenochaeta lycopersici. The data set is described as follows: Fungicidal activity against Pyrenochaeta lycopersici infected tomato plant assessed as diseased root surface applied as dipping of seedling roots into fungicide water suspension before transplanting and two soil drenches post transplanting after 100 days under field condition relative to untreated control. Type of data set: functional.

Data set [30] concerns Pseudopyrenochaeta lycopersici. The data set is described as follows: Fungicidal activity against Pyrenochaeta lycopersici infected tomato plant assessed as diseased root surface applied as one soil drench and two foliar sprays post transplanting after 100 days under field condition relative to untreated control. Type of data set: functional.
Data set [31] concerns Pseudopyrenochaeta lycopersici. The data set is described as follows: Fungicidal activity against Pyrenochaeta lycopersici infected tomato plant assessed as diseased root surface applied as dipping of seedling roots into fungicide water suspension before transplanting and one soil drench post transplanting after 100 days under field condition relative to untreated control. Type of data set: functional.

The test system of data set [32] is Verticillium dahliae. Nature of the data set: Fungicidal activity against Verticillium dahliae infected eggplant assessed as wilted leaves after 80 days under greenhouse condition relative to untreated control. Type of data set: functional.
For data set [33], the system named is Pseudopyrenochaeta lycopersici. Nature of the data set: Fungicidal activity against Pyrenochaeta lycopersici infected tomato plant assessed as diseased root surface after 120 days under greenhouse condition relative to untreated control. The format is functional.

Activity calls are given as the source filed them. The rule behind the calls is not given here.

In the case of `CO/N=C(\C(=O)OC)c1ccccc1CO/N=C(\C)c1cccc(C(F)(F)F)c1`, the Activity result in the data set with Solanum lycopersicum [1] is “Non-toxic”; in the data set with Solanum melongena [2], “Non-toxic”; in the data set with Solanum melongena [3] it was “Non-toxic”; in the data set with Verticillium dahliae [5] it was 17.6%; with Solanum lycopersicum [6], “Non-toxic”; in data set [7] it was 48.7%. Moreover, the Activity in the data set on Verticillium dahliae [8] turned out to be 78.1%; in data set [9], 93.3%. In addition, the result in the data set on Verticillium dahliae [4] was inactive.

For the compound `CSC(=O)c1cccc2nnsc12` [ACIBENZOLAR-S-METHYL], the Activity entry is “Non-toxic” with Solanum melongena [10]; 6.9% in the data set on Solanum melongena [12]; “Non-toxic” in the data set on Solanum lycopersicum [13]; 62.7% in the data set with Solanum lycopersicum [14]; “Toxic” in the data set on Solanum melongena [15]; “Toxic” with Solanum melongena [16]. In addition, the Activity result with Solanum lycopersicum [17] and with Solanum lycopersicum [18] was “Toxic” each time. In addition, the outcome with Solanum melongena [11] was inactive.

In the case of `CO/C=C(/C(=O)OC)c1ccccc1Oc1cc(Oc2ccccc2C#N)ncn1` [AZOXYSTROBIN], the Activity entry with Solanum melongena [19] is on record as “Toxic”; with Solanum lycopersicum [20], “Toxic”; with Solanum melongena [21], “Toxic”; in the data set on Verticillium dahliae [25] it was 24.6%; in the data set on Verticillium dahliae [26], 24.6%; with Verticillium dahliae [27] it was 29.4%. Further, the Activity result is on record as “Toxic” with Solanum lycopersicum [28]; 83.7% in [29]; 81.7% in data set [30]; 73.5% in data set [31]; 95.1% with Verticillium dahliae [32]; 98.3% in [33]. Further, the outcome in the data set with Verticillium dahliae [22], in the data set with Verticillium dahliae [23] and in the data set on Verticillium dahliae [24] was inactive.

The values above are taken from ChEMBL document CHEMBL3044978, “Efficacy of acibenzolar-S-methyl and two strobilurins, azoxystrobin and trifloxystrobin, for the control of corky root of tomato and verticillium wilt of eggplant” (Crop Prot, 2006).
